Laboratory results: ChEMBL document CHEMBL4118198, “Synthesis and antiviral evaluation of novel peptidomimetics as norovirus protease inhibitors” (Bioorg Med Chem Lett, 2018)

What follows are compounds tested against T1, Protease (Norovirus Hu/GII.4-2002/WeertE022/2002/NL) (UniProt G1FEK8) (assay: (§1) Inhibition of Norovirus prototypic GII.4 3CL protease using HiLyte Fluor 488-labelled DFELQGPK as substrate incubated for 90 mins measured every mins for 20 mins by FRET assay). Conditions: Norovirus GII.4.
T1 sequence (whole entry): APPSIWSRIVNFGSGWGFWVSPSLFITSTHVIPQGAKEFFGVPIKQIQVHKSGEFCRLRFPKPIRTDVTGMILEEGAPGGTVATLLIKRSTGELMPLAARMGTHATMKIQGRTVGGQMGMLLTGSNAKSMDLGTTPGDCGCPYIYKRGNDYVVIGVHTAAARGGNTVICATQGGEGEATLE
In the case of CC(C)C[C@H](NC(=O)[C@H](Cc1cccc2ccccc12)NC(=O)OCc1ccccc1)C(=O)N[C@H](C=O)C[C@@H]1CCNC1=O, the IC90 is reported as 0.205 µM.

What follows are compounds tested against T2, Protease (Norovirus Hu/GII.4-2002/WeertE022/2002/NL, UniProt G1FEK8) (assay: as §1). Conditions: not given.
T2 sequence (G1FEK8 whole entry): T1 sequence (whole entry)
Design: species or system Norovirus GII.4
For CC(C)C[C@H](NC(=O)[C@H](Cc1cccc2ccccc12)NC(=O)OCc1ccccc1)C(=O)N[C@H](CO)Cn1ccnn1, the IC50 was > 10 µM.
CC(C)C[C@H](NC(=O)[C@H](Cc1cccc2ccccc12)NC(=O)OCc1ccccc1)C(=O)N[C@H](CO)CNC(=O)N1CCC1 was tested, and the IC50 was > 100 µM.
CC(C)C[C@H](NC(=O)[C@H](Cc1cccc2ccccc12)NC(=O)OCc1ccccc1)C(=O)N[C@H](CCl)C[C@@H]1CCCNC1=O was tested, and the IC50 was > 100 µM.
CC(C)C[C@H](NC(=O)[C@H](Cc1cccc2ccccc12)NC(=O)OCc1ccccc1)C(=O)N[C@H](CS)C[C@@H]1CCNC1=O was tested, and the IC50 was > 10 µM.
In the case of CC(C)C[C@H](NC(=O)[C@H](Cc1cccc2ccccc12)NC(=O)OCc1ccccc1)C(=O)NC(C[C@@H]1CCNC1=O)C1CO1 (stereo partly specified), the IC50 is reported as > 100 µM.
With CC(C)C[C@H](NC(=O)[C@H](Cc1cccc2ccccc12)NC(=O)OCc1ccccc1)C(=O)NC(/C=C/C=O)C[C@@H]1CCNC1=O (stereo partly specified) the IC50 was > 100 µM.
For CC(C)C[C@H](NC(=O)[C@H](Cc1cccc2ccccc12)NC(=O)OCc1ccccc1)C(=O)N[C@H](C=O)C[C@@H]1CCNC1=O, the IC50 was 0.06 µM.

What follows are compounds tested against Nonstructural polyprotein (Norovirus Hu/GI/10360/2010/VNM) (UniProt I1U3K2) (assay: (§2) Inhibition of Norovirus prototypic GI.1 3CL protease using HiLyte Fluor 488-labelled DFELQGPK as substrate incubated for 90 mins measured every mins for 20 mins by FRET assay). Conditions: Norovirus GI.1.
Chain of Nonstructural polyprotein (Norovirus Hu/GI/10360/2010/VNM) (I1U3K2 as listed by the source): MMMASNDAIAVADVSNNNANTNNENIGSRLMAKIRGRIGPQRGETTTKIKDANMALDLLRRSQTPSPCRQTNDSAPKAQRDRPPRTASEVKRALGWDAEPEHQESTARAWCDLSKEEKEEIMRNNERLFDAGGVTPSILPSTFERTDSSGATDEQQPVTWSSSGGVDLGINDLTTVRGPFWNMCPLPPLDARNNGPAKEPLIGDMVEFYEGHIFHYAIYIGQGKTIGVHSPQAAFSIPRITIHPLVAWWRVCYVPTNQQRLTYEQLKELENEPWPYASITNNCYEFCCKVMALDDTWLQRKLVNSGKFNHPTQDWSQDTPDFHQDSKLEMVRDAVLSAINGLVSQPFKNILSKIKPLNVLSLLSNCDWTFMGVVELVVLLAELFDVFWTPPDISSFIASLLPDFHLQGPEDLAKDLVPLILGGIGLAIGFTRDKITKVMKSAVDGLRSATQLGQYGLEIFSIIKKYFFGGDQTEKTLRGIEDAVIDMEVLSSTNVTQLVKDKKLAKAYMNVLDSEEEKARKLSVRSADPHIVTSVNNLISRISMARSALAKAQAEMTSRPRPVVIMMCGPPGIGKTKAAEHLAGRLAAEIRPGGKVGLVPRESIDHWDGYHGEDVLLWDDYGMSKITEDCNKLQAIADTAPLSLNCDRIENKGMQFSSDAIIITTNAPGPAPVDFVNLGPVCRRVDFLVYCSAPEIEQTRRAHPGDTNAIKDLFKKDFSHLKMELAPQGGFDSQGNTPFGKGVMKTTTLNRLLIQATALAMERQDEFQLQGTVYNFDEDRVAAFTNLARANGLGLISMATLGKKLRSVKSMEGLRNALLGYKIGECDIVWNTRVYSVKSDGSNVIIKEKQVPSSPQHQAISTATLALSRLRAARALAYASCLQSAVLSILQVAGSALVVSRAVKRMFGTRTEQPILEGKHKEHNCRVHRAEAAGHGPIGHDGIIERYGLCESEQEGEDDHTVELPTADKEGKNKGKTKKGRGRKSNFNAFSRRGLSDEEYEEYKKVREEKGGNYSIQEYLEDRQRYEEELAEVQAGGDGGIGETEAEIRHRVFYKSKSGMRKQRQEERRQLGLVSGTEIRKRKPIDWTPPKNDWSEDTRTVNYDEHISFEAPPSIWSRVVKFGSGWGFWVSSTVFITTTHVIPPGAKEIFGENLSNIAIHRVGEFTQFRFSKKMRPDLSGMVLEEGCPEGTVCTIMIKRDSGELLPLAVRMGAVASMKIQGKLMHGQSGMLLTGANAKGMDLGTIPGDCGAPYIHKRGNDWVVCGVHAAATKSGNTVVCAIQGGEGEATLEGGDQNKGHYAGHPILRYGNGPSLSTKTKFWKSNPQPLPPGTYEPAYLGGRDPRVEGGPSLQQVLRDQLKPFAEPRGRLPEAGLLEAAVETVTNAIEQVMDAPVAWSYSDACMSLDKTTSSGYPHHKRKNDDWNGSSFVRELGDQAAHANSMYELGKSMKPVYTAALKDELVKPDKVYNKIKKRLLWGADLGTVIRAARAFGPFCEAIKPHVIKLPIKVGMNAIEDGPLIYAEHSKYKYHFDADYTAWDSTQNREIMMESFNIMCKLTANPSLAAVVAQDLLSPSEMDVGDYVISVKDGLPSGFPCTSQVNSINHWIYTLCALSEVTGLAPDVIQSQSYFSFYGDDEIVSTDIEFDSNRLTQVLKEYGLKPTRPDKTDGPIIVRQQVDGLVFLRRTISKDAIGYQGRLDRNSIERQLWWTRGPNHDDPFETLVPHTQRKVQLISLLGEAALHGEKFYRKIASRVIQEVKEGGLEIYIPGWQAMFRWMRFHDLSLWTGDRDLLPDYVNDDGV
In the case of CC(C)C[C@H](NC(=O)[C@H](Cc1cccc2ccccc12)NC(=O)OCc1ccccc1)C(=O)N[C@H](C=O)C[C@@H]1CCNC1=O, the IC90 is reported as 0.248 µM.

The compounds below were run against Nonstructural polyprotein (Norovirus Hu/GI/10360/2010/VNM, UniProt I1U3K2) (assay: as §2). Conditions: not given.
Chain of Nonstructural polyprotein (I1U3K2 whole entry): as the sequence (I1U3K2 as listed by the source) above
Design: species or system Norovirus GI.1
CC(C)C[C@H](NC(=O)[C@H](Cc1cccc2ccccc12)NC(=O)OCc1ccccc1)C(=O)N[C@H](CO)Cn1ccnn1 was tested, and the IC50 was > 1 µM.
CC(C)C[C@H](NC(=O)[C@H](Cc1cccc2ccccc12)NC(=O)OCc1ccccc1)C(=O)N[C@H](CO)CNC(=O)N1CCC1 was tested, and the IC50 was > 100 µM.
In the case of CC(C)C[C@H](NC(=O)[C@H](Cc1cccc2ccccc12)NC(=O)OCc1ccccc1)C(=O)N[C@H](CS)C[C@@H]1CCNC1=O, the IC50 is reported as > 10 µM.
CC(C)C[C@H](NC(=O)[C@H](Cc1cccc2ccccc12)NC(=O)OCc1ccccc1)C(=O)NC(C[C@@H]1CCNC1=O)C1CO1 (stereo partly specified) was tested, and the IC50 was > 100 µM.
For CC(C)C[C@H](NC(=O)[C@H](Cc1cccc2ccccc12)NC(=O)OCc1ccccc1)C(=O)NC(/C=C/C=O)C[C@@H]1CCNC1=O (stereo partly specified), the IC50 was > 10 µM.
In the case of CC(C)C[C@H](NC(=O)[C@H](Cc1cccc2ccccc12)NC(=O)OCc1ccccc1)C(=O)N[C@H](C=O)C[C@@H]1CCNC1=O, the IC50 is reported as 0.032 µM.

These compounds were tested on Norovirus (assay: Antiviral activity against Norovirus prototypic GI.1 infected in human HG23 cells assessed as inhibition of viral RNA replication after 4 days by RT-qPCR method). Conditions: not given.
Type: functional, organism-based, Norovirus GI.1
In the case of CC(C)C[C@H](NC(=O)[C@H](Cc1cccc2ccccc12)NC(=O)OCc1ccccc1)C(=O)N[C@H](CO)Cn1ccnn1, the EC50 is reported as “Nd(Toxic)”.

Same assay, conditions: Norovirus, HG23, 96 h
In the case of CC(C)C[C@H](NC(=O)[C@H](Cc1cccc2ccccc12)NC(=O)OCc1ccccc1)C(=O)NC(/C=C/C=O)C[C@@H]1CCNC1=O (stereo partly specified), the EC90 is reported as > 10 µM.
Compound CC(C)C[C@H](NC(=O)[C@H](Cc1cccc2ccccc12)NC(=O)OCc1ccccc1)C(=O)N[C@H](C=O)C[C@@H]1CCNC1=O has an EC90 of 8.36 µM.

Same assay, conditions: Norovirus, HG23, 96 h; read-out: EC50
For CC(C)C[C@H](NC(=O)[C@H](Cc1cccc2ccccc12)NC(=O)OCc1ccccc1)C(=O)N[C@H](CO)CNC(=O)N1CCC1, the EC50 was > 10 µM.
CC(C)C[C@H](NC(=O)[C@H](Cc1cccc2ccccc12)NC(=O)OCc1ccccc1)C(=O)N[C@H](CCl)C[C@@H]1CCCNC1=O was tested, and the EC50 was > 10 µM.
In the case of CC(C)C[C@H](NC(=O)[C@H](Cc1cccc2ccccc12)NC(=O)OCc1ccccc1)C(=O)N[C@H](CS)C[C@@H]1CCNC1=O, the EC50 is reported as > 10 µM.
In the case of CC(C)C[C@H](NC(=O)[C@H](Cc1cccc2ccccc12)NC(=O)OCc1ccccc1)C(=O)NC(C[C@@H]1CCNC1=O)C1CO1 (stereo partly specified), the EC50 is reported as > 10 µM.
Work on CC(C)C[C@H](NC(=O)[C@H](Cc1cccc2ccccc12)NC(=O)OCc1ccccc1)C(=O)NC(/C=C/C=O)C[C@@H]1CCNC1=O (stereo partly specified) yielded an EC50 of 4.7 µM.
CC(C)C[C@H](NC(=O)[C@H](Cc1cccc2ccccc12)NC(=O)OCc1ccccc1)C(=O)N[C@H](C=O)C[C@@H]1CCNC1=O showed an EC50 of 1.13 µM.

What follows are compounds tested on Norovirus (assay: Antiviral activity against Norovirus prototypic GI.1 infected in human HG23 cells assessed as inhibition of viral RNA replication at 10 uM after 4 days by RT-qPCR method relative to control). Conditions: HG23, 96 h.
Type: functional, Norovirus GI.1
CC(C)C[C@H](NC(=O)[C@H](Cc1cccc2ccccc12)NC(=O)OCc1ccccc1)C(=O)N[C@H](CO)Cn1ccnn1 was tested, and the inhibition at 10 µM was 99%.

The compounds below were run on Huh-7 (assay: Cytotoxicity against human HuH7 cells assessed as reduction in cell viability). Conditions: not given.
Type: cell-based
With CC(C)C[C@H](NC(=O)[C@H](Cc1cccc2ccccc12)NC(=O)OCc1ccccc1)C(=O)N[C@H](CO)Cn1ccnn1 the CC50 was 2.7 µM.
Compound CC(C)C[C@H](NC(=O)[C@H](Cc1cccc2ccccc12)NC(=O)OCc1ccccc1)C(=O)N[C@H](CO)CNC(=O)N1CCC1 has a CC50 of 33 µM.
In the case of CC(C)C[C@H](NC(=O)[C@H](Cc1cccc2ccccc12)NC(=O)OCc1ccccc1)C(=O)N[C@H](CS)C[C@@H]1CCNC1=O, the CC50 is reported as 93.5 µM.
For CC(C)C[C@H](NC(=O)[C@H](Cc1cccc2ccccc12)NC(=O)OCc1ccccc1)C(=O)N[C@H](C=O)C[C@@H]1CCNC1=O, the CC50 was > 10 µM.

What follows are compounds tested on PBMC (assay: Cytotoxicity against human PBMC assessed as reduction in cell viability after 6 days by trypan blue exclusion assay). Conditions: 144 h.
Type: cell-based
Compound CC(C)C[C@H](NC(=O)[C@H](Cc1cccc2ccccc12)NC(=O)OCc1ccccc1)C(=O)N[C@H](CO)Cn1ccnn1 has a CC50 of 1.9 µM.
Compound CC(C)C[C@H](NC(=O)[C@H](Cc1cccc2ccccc12)NC(=O)OCc1ccccc1)C(=O)N[C@H](CO)CNC(=O)N1CCC1 has a CC50 of 21.2 µM.
In the case of CC(C)C[C@H](NC(=O)[C@H](Cc1cccc2ccccc12)NC(=O)OCc1ccccc1)C(=O)N[C@H](CCl)C[C@@H]1CCCNC1=O, the CC50 is reported as 75 µM.
For CC(C)C[C@H](NC(=O)[C@H](Cc1cccc2ccccc12)NC(=O)OCc1ccccc1)C(=O)N[C@H](CS)C[C@@H]1CCNC1=O, the CC50 was > 100 µM.
Work on CC(C)C[C@H](NC(=O)[C@H](Cc1cccc2ccccc12)NC(=O)OCc1ccccc1)C(=O)NC(C[C@@H]1CCNC1=O)C1CO1 (stereo partly specified) yielded a CC50 of 15.7 µM.
With CC(C)C[C@H](NC(=O)[C@H](Cc1cccc2ccccc12)NC(=O)OCc1ccccc1)C(=O)NC(/C=C/C=O)C[C@@H]1CCNC1=O (stereo partly specified) the CC50 was 3.9 µM.
CC(C)C[C@H](NC(=O)[C@H](Cc1cccc2ccccc12)NC(=O)OCc1ccccc1)C(=O)N[C@H](C=O)C[C@@H]1CCNC1=O gave a CC50 of 28.4 µM.

The compounds below were run on CCRF-CEM (assay: Cytotoxicity against human CEM cells assessed as reduction in cell viability after 6 days by trypan blue exclusion assay). Conditions: 144 h.
Type: cell-based
With CC(C)C[C@H](NC(=O)[C@H](Cc1cccc2ccccc12)NC(=O)OCc1ccccc1)C(=O)N[C@H](CO)Cn1ccnn1 the CC50 was 0.3 µM.
Work on CC(C)C[C@H](NC(=O)[C@H](Cc1cccc2ccccc12)NC(=O)OCc1ccccc1)C(=O)N[C@H](CO)CNC(=O)N1CCC1 yielded a CC50 of 2.2 µM.
In the case of CC(C)C[C@H](NC(=O)[C@H](Cc1cccc2ccccc12)NC(=O)OCc1ccccc1)C(=O)N[C@H](CCl)C[C@@H]1CCCNC1=O, the CC50 is reported as 26.6 µM.
CC(C)C[C@H](NC(=O)[C@H](Cc1cccc2ccccc12)NC(=O)OCc1ccccc1)C(=O)N[C@H](CS)C[C@@H]1CCNC1=O was tested, and the CC50 was > 100 µM.
For CC(C)C[C@H](NC(=O)[C@H](Cc1cccc2ccccc12)NC(=O)OCc1ccccc1)C(=O)NC(C[C@@H]1CCNC1=O)C1CO1 (stereo partly specified), the CC50 was 14 µM.
For CC(C)C[C@H](NC(=O)[C@H](Cc1cccc2ccccc12)NC(=O)OCc1ccccc1)C(=O)NC(/C=C/C=O)C[C@@H]1CCNC1=O (stereo partly specified), the CC50 was 1.9 µM.
Work on CC(C)C[C@H](NC(=O)[C@H](Cc1cccc2ccccc12)NC(=O)OCc1ccccc1)C(=O)N[C@H](C=O)C[C@@H]1CCNC1=O yielded a CC50 of 39.5 µM.

These compounds were tested on Vero (assay: Cytotoxicity against African green monkey Vero cells assessed as reduction in cell viability after 3 days by hemocytometer). Conditions: chlorocebus sabaeus, 72 h.
Type: cell-based
CC(C)C[C@H](NC(=O)[C@H](Cc1cccc2ccccc12)NC(=O)OCc1ccccc1)C(=O)N[C@H](CO)Cn1ccnn1 gave a CC50 of 3.2 µM.
CC(C)C[C@H](NC(=O)[C@H](Cc1cccc2ccccc12)NC(=O)OCc1ccccc1)C(=O)N[C@H](CO)CNC(=O)N1CCC1 was tested, and the CC50 was > 100 µM.
In the case of CC(C)C[C@H](NC(=O)[C@H](Cc1cccc2ccccc12)NC(=O)OCc1ccccc1)C(=O)N[C@H](CCl)C[C@@H]1CCCNC1=O, the CC50 is reported as 51.7 µM.
In the case of CC(C)C[C@H](NC(=O)[C@H](Cc1cccc2ccccc12)NC(=O)OCc1ccccc1)C(=O)N[C@H](CS)C[C@@H]1CCNC1=O, the CC50 is reported as > 100 µM.
CC(C)C[C@H](NC(=O)[C@H](Cc1cccc2ccccc12)NC(=O)OCc1ccccc1)C(=O)NC(C[C@@H]1CCNC1=O)C1CO1 (stereo partly specified) gave a CC50 of 30.4 µM.
Compound CC(C)C[C@H](NC(=O)[C@H](Cc1cccc2ccccc12)NC(=O)OCc1ccccc1)C(=O)NC(/C=C/C=O)C[C@@H]1CCNC1=O (stereo partly specified) has a CC50 of 77.7 µM.
In the case of CC(C)C[C@H](NC(=O)[C@H](Cc1cccc2ccccc12)NC(=O)OCc1ccccc1)C(=O)N[C@H](C=O)C[C@@H]1CCNC1=O, the CC50 is reported as > 100 µM.

Each compound was assayed against T1, Protease (Norovirus Hu/GII.4-2002/WeertE022/2002/NL) (assay: Inhibition of Norovirus prototypic GII.4 3CL protease using HiLyte Fluor 488-labelled DFELQGPK as substrate incubated for 90 mins measured every mins for 20 mins by FRET assay relative to control). Conditions: Norovirus GII.4.
CC(C)C[C@H](NC(=O)[C@H](Cc1cccc2ccccc12)NC(=O)OCc1ccccc1)C(=O)N[C@H](CO)CNC(=O)N1CCC1 gave an inhibition of 4%.
